{"source": "the supplement of paper PMC10307832", "assay_in_all_cases": "relative viability (nuclei count vs DMSO), 5 days (fraction); higher = more cells survive", "key": {"[1]": {"test_system": "RERF-LC-KJ", "in_short": "(§1)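 Relative viability equals treated-well nuclei counts divided by vehicle-well nuclei counts. Counts came from 4× images of lung cancer cell lines grown in 1536-well plates for 5 days after pin-tool dosing on the day after seeding. Dosing used one drug alone or a fixed anchor-drug dose plus five library-drug doses (not always all listed) in √10 steps, and values are medians of duplicate plates.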"}, "[2]": {"test_system": "SK-MES-1", "in_short": "as §1"}, "[3]": {"test_system": "EPLC-272H", "in_short": "as §1"}, "[4]": {"test_system": "HCC-78", "in_short": "as §1"}, "[5]": {"test_system": "LCLC-97TM1", "in_short": "as §1"}, "[6]": {"test_system": "NCI-H1650", "in_short": "as §1"}, "[7]": {"test_system": "NCI-H1563", "in_short": "as §1"}, "[8]": {"test_system": "LOU-NH91", "in_short": "as §1"}, "[9]": {"test_system": "SW 900", "in_short": "as §1"}, "[10]": {"test_system": "NCI-H1734", "in_short": "as §1"}, "[11]": {"test_system": "NCI-H2126", "in_short": "as §1"}, "[12]": {"test_system": "EKVX", "in_short": "as §1"}, "[13]": {"test_system": "BEN", "in_short": "as §1"}, "[14]": {"test_system": "HCC-827", "in_short": "as §1"}, "[15]": {"test_system": "LK-2", "in_short": "as §1"}, "[16]": {"test_system": "NCI-H1944", "in_short": "as §1"}, "[17]": {"test_system": "NCI-H727", "in_short": "as §1"}, "[18]": {"test_system": "EMC-BAC-2", "in_short": "as §1"}, "[19]": {"test_system": "NCI-H358", "in_short": "as §1"}, "[20]": {"test_system": "SW 1573", "in_short": "as §1"}, "[21]": {"test_system": "NCI-H2087", "in_short": "as §1"}, "[22]": {"test_system": "LU99A", "in_short": "as §1"}, "[23]": {"test_system": "COR-L 105", "in_short": "as §1"}}}
{"smiles": "CCCCCCCCCCCC1=C(O)C(=O)C=C(O)C1=O", "note": "[Embelin] + COc1cc2c(Oc3ccc(NC(=O)C4(C(=O)Nc5ccc(F)cc5)CC4)cc3F)ccnc2cc1OCCCN1CCOCC1 [Foretinib] (partner 0.25 µM)", "values": [{"measurement": "relative viability", "setting": "[1]; first compound 0.08 µM", "value": 0.836}, {"measurement": "relative viability", "setting": "[1]; first compound 0.8 µM", "value": 0.965}, {"measurement": "relative viability", "setting": "[1]; first compound 2.53 µM", "value": 0.95}, {"measurement": "relative viability", "setting": "[1]; first compound 8 µM", "value": 1}, {"measurement": "relative viability", "setting": "[2]; first compound 0.08 µM", "value": 0.943}, {"measurement": "relative viability", "setting": "[2]; first compound 0.8 µM", "value": 1.22}, {"measurement": "relative viability", "setting": "[2]; first compound 2.53 µM", "value": 0.972}, {"measurement": "relative viability", "setting": "[2]; first compound 8 µM", "value": 0.94}, {"measurement": "relative viability", "setting": "[3]; first compound 0.08 µM", "value": 0.736}, {"measurement": "relative viability", "setting": "[3]; first compound 0.8 µM", "value": 0.866}, {"measurement": "relative viability", "setting": "[3]; first compound 2.53 µM", "value": 0.916}, {"measurement": "relative viability", "setting": "[3]; first compound 8 µM", "value": 0.65}, {"measurement": "relative viability", "setting": "[4]; first compound 0.08 µM", "value": 0.544}, {"measurement": "relative viability", "setting": "[4]; first compound 0.8 µM", "value": 0.601}, {"measurement": "relative viability", "setting": "[4]; first compound 2.53 µM", "value": 0.65}, {"measurement": "relative viability", "setting": "[4]; first compound 8 µM", "value": 0.559}, {"measurement": "relative viability", "setting": "[5]; first compound 0.08 µM", "value": 0.988}, {"measurement": "relative viability", "setting": "[5]; first compound 0.8 µM", "value": 0.943}, {"measurement": "relative viability", "setting": "[5]; first compound 2.53 µM", "value": 1.04}, {"measurement": "relative viability", "setting": "[5]; first compound 8 µM", "value": 0.899}, {"measurement": "relative viability", "setting": "[6]; first compound 0.08 µM", "value": 1.09}, {"measurement": "relative viability", "setting": "[6]; first compound 0.8 µM", "value": 1.05}, {"measurement": "relative viability", "setting": "[6]; first compound 2.53 µM", "value": 1.11}, {"measurement": "relative viability", "setting": "[6]; first compound 8 µM", "value": 0.968}, {"measurement": "relative viability", "setting": "[7]; first compound 0.08 µM", "value": 0.932}, {"measurement": "relative viability", "setting": "[7]; first compound 0.8 µM", "value": 1.09}, {"measurement": "relative viability", "setting": "[7]; first compound 2.53 µM", "value": 0.944}, {"measurement": "relative viability", "setting": "[7]; first compound 8 µM", "value": 0.896}, {"measurement": "relative viability", "setting": "[8]; first compound 0.08 µM", "value": 0.968}, {"measurement": "relative viability", "setting": "[8]; first compound 0.8 µM", "value": 1.08}, {"measurement": "relative viability", "setting": "[8]; first compound 2.53 µM", "value": 1.09}, {"measurement": "relative viability", "setting": "[8]; first compound 8 µM", "value": 0.978}, {"measurement": "relative viability", "setting": "[9]; first compound 0.08 µM", "value": 0.89}, {"measurement": "relative viability", "setting": "[9]; first compound 0.8 µM", "value": 0.915}, {"measurement": "relative viability", "setting": "[9]; first compound 2.53 µM", "value": 1.02}, {"measurement": "relative viability", "setting": "[9]; first compound 8 µM", "value": 0.876}, {"measurement": "relative viability", "setting": "[10]; first compound 0.08 µM", "value": 0.899}, {"measurement": "relative viability", "setting": "[10]; first compound 0.8 µM", "value": 0.926}, {"measurement": "relative viability", "setting": "[10]; first compound 2.53 µM", "value": 0.989}, {"measurement": "relative viability", "setting": "[10]; first compound 8 µM", "value": 0.924}, {"measurement": "relative viability", "setting": "[11]; first compound 0.08 µM", "value": 1.12}, {"measurement": "relative viability", "setting": "[11]; first compound 0.8 µM", "value": 1.21}, {"measurement": "relative viability", "setting": "[11]; first compound 2.53 µM", "value": 1.23}, {"measurement": "relative viability", "setting": "[11]; first compound 8 µM", "value": 1.2}, {"measurement": "relative viability", "setting": "[12]; first compound 0.08 µM", "value": 0.789}, {"measurement": "relative viability", "setting": "[12]; first compound 0.8 µM", "value": 0.926}, {"measurement": "relative viability", "setting": "[12]; first compound 2.53 µM", "value": 0.625}, {"measurement": "relative viability", "setting": "[12]; first compound 8 µM", "value": 0.875}, {"measurement": "relative viability", "setting": "[13]; first compound 0.08 µM", "value": 0.681}, {"measurement": "relative viability", "setting": "[13]; first compound 0.8 µM", "value": 0.954}, {"measurement": "relative viability", "setting": "[13]; first compound 2.53 µM", "value": 0.677}, {"measurement": "relative viability", "setting": "[13]; first compound 8 µM", "value": 0.867}, {"measurement": "relative viability", "setting": "[14]; first compound 0.08 µM", "value": 0.993}, {"measurement": "relative viability", "setting": "[14]; first compound 0.8 µM", "value": 1.11}, {"measurement": "relative viability", "setting": "[14]; first compound 2.53 µM", "value": 1.03}, {"measurement": "relative viability", "setting": "[14]; first compound 8 µM", "value": 1.16}, {"measurement": "relative viability", "setting": "[15]; first compound 0.08 µM", "value": 1.13}, {"measurement": "relative viability", "setting": "[15]; first compound 0.8 µM", "value": 1.7}, {"measurement": "relative viability", "setting": "[15]; first compound 2.53 µM", "value": 1.47}, {"measurement": "relative viability", "setting": "[15]; first compound 8 µM", "value": 1.79}, {"measurement": "relative viability", "setting": "[16]; first compound 0.08 µM", "value": 0.842}, {"measurement": "relative viability", "setting": "[16]; first compound 0.8 µM", "value": 0.968}, {"measurement": "relative viability", "setting": "[16]; first compound 2.53 µM", "value": 0.989}, {"measurement": "relative viability", "setting": "[16]; first compound 8 µM", "value": 0.998}, {"measurement": "relative viability", "setting": "[17]; first compound 0.08 µM", "value": 0.793}, {"measurement": "relative viability", "setting": "[17]; first compound 0.8 µM", "value": 1.13}, {"measurement": "relative viability", "setting": "[17]; first compound 2.53 µM", "value": 1.11}, {"measurement": "relative viability", "setting": "[17]; first compound 8 µM", "value": 0.761}, {"measurement": "relative viability", "setting": "[18]; first compound 0.08 µM", "value": 1.05}, {"measurement": "relative viability", "setting": "[18]; first compound 0.8 µM", "value": 1.09}, {"measurement": "relative viability", "setting": "[18]; first compound 2.53 µM", "value": 0.973}, {"measurement": "relative viability", "setting": "[18]; first compound 8 µM", "value": 1.07}, {"measurement": "relative viability", "setting": "[19]; first compound 0.08 µM", "value": 0.753}, {"measurement": "relative viability", "setting": "[19]; first compound 0.8 µM", "value": 0.81}, {"measurement": "relative viability", "setting": "[19]; first compound 2.53 µM", "value": 0.976}, {"measurement": "relative viability", "setting": "[19]; first compound 8 µM", "value": 0.869}, {"measurement": "relative viability", "setting": "[20]; first compound 0.08 µM", "value": 0.974}, {"measurement": "relative viability", "setting": "[20]; first compound 0.8 µM", "value": 0.998}, {"measurement": "relative viability", "setting": "[20]; first compound 2.53 µM", "value": 1.08}, {"measurement": "relative viability", "setting": "[20]; first compound 8 µM", "value": 0.948}, {"measurement": "relative viability", "setting": "[21]; first compound 0.08 µM", "value": 1.07}, {"measurement": "relative viability", "setting": "[21]; first compound 0.8 µM", "value": 1.27}, {"measurement": "relative viability", "setting": "[21]; first compound 2.53 µM", "value": 1.03}, {"measurement": "relative viability", "setting": "[21]; first compound 8 µM", "value": 1.19}, {"measurement": "relative viability", "setting": "[22]; first compound 0.08 µM", "value": 0.907}, {"measurement": "relative viability", "setting": "[22]; first compound 0.8 µM", "value": 0.934}, {"measurement": "relative viability", "setting": "[22]; first compound 2.53 µM", "value": 0.864}, {"measurement": "relative viability", "setting": "[22]; first compound 8 µM", "value": 0.766}, {"measurement": "relative viability", "setting": "[23]; first compound 0.08 µM", "value": 1.04}, {"measurement": "relative viability", "setting": "[23]; first compound 0.8 µM", "value": 1.05}, {"measurement": "relative viability", "setting": "[23]; first compound 2.53 µM", "value": 1.18}, {"measurement": "relative viability", "setting": "[23]; first compound 8 µM", "value": 0.807}]}
